Data set [1] has as its system dog. The settings on record: Chronic toxicity; beagle; Oral; Feed; dose end: 1 year; group: systemic; systemic / pathology microscopic / skeletal muscle / degeneration + systemic / pathology microscopic / skeletal muscle / infiltration ….
Data set [2] relates to rabbit. The settings on record: Prenatal developmental toxicity study, new zealand white, Oral, Gavage/Intubation, dose end: 19 GD.
Data set [3] deals with dog. Conditions: Chronic toxicity; beagle; Oral; Feed; dose end: 52 week; group: systemic; systemic / hematology / anemia / anemia - hemolytic + systemic / hematology / platelet / platelet + systemic / in life observation / body ….
For data set [4], the system named is rat. Conditions: Multigenerational reproductive toxicity study, other, Oral, Feed, dose end: 2 generation.
For data set [5], the system named is rabbit. Conditions: Prenatal developmental toxicity study, new zealand white, Oral, Gavage/Intubation, dose end: 19 GD. This is another data set of the same source.
Data set [6] relates to rat. The settings on record: Prenatal developmental toxicity study, sprague dawley, Oral, Gavage/Intubation, dose end: 15 GD.
The subject of data set [7] is mouse. The settings on record: Carcinogenicity; cd1; Oral; Feed; dose end: 78 week; group: systemic; systemic / in life observation / body weight / body weight gain + systemic / organ weight / liver / relative to body weight + systemic / ….
Data set [8] concerns rat. Conditions: Combined chronic toxicity/carcinogenicity, sprague dawley, Oral, [Not Specified], dose end: 104 week, group: systemic.
Data set [9] relates to rat. The settings on record: Peri- and post-natal toxicity study (Segment III); long evans; Injection; Subcutaneous; dose end: 3 PND; group: developmental; developmental / developmental landmark / vaginal opening / vaginal opening.
Data set [10] relates to mouse. Conditions: Prenatal developmental toxicity study, cd1, Oral, Gavage/Intubation, dose end: 15 GD.
Data set [11] has as its system mouse. The settings on record: Carcinogenicity, b6c3f1, Oral, Water, dose end: 103 week, group: systemic.
Data set [12] relates to rat. Conditions: Multigenerational reproductive toxicity study, sprague dawley, Oral, Water, dose end: 2 generation.
Data set [13] relates to rat. Conditions: Carcinogenicity, fischer, Oral, Water, dose end: 103 week, group: systemic.
Data set [14] concerns dog. Conditions: Chronic toxicity, beagle, Oral, Feed, dose end: 104 week, group: systemic.
Data set [15] has as its system rat. The settings on record: Multigenerational reproductive toxicity study, sprague dawley, Oral, [Not Specified], dose end: 2 generation.
Data set [16] concerns rat. The settings on record: Prenatal developmental toxicity study, sprague dawley, Oral, Gavage/Intubation, dose end: 20 GD.
The mark [17] stands for this setting: group: developmental, developmental / developmental malformation / bone / short supernumerary.
Setting [18] is: group: maternal, systemic / in life observation / body weight / body weight gain + systemic / in life observation / food consumption / food consumption.
Where [19] appears, read: group: maternal, systemic / in life observation / body weight / body weight gain + systemic / in life observation / food consumption / food consumption + ….
Where [20] appears, read: group: offspring, developmental / offspring survival late / viability index / viability index.
[21] abbreviates: group: offspring, developmental / offspring survival late / viability index / viability index + systemic / in life observation / body weight / offspring (pup….
[22] abbreviates: group: parental, systemic / organ weight / liver / absolute + systemic / organ weight / liver / relative to body weight + systemic / pathology microscopic / ….
[23] abbreviates: group: developmental, developmental / developmental malformation / bone / supernumerary.
[24] abbreviates: group: maternal, systemic / in life observation / body weight / body weight gain + systemic / in life observation / clinical signs / defecation + systemic / ….
The mark [25] stands for this setting: group: developmental, developmental / developmental malformation / bone / delayed ossification + systemic / in life observation / body weight / fetal weight.
Where [26] appears, read: group: developmental, developmental / developmental malformation / bone / delayed ossification + systemic / in life observation / body weight / fetal weight + ….
[27] abbreviates: group: maternal, systemic / in life observation / body weight / body weight + systemic / in life observation / body weight / body weight gain + systemic / in….
[28] abbreviates: systemic / pathology gross / eye / discolored + systemic / pathology microscopic / eye / inflammation + systemic / pathology microscopic / ….
Where [29] appears, read: group: developmental, developmental / developmental malformation / mouth / jaw / cleft palate + systemic / in life observation / body weight / fetal weight.
Setting [30] is: systemic / in life observation / body weight / body weight + systemic / in life observation / water consumption / water consumption.
Setting [31] is: systemic / pathology microscopic / uterus / interstitial stromal tumor + systemic / in life observation / body weight / body weight + ….
Setting [32] is: group: offspring, developmental / developmental landmark / preputial separation / preputial separation + systemic / in life observation / body weight / ….
[33] abbreviates: group: parental, systemic / in life observation / body weight / body weight + systemic / in life observation / body weight / body weight gain + systemic / in….
Setting [34] is: group: parental, systemic / in life observation / clinical signs / red or crusty deposits around eyes, ears, nose, or mouth + systemic / in life observation….
[35] abbreviates: group: reproductive, reproductive / offspring survival early / dead fetuses / dead fetuses.
[36] abbreviates: systemic / in life observation / body weight / body weight + systemic / in life observation / water consumption / water consumption + ….
[37] abbreviates: systemic / pathology microscopic / adrenal gland / pheochromocytoma nos + systemic / pathology microscopic / bone marrow / leukemia + ….
Where [38] appears, read: systemic / clinical chemistry / alkaline phosphatase (alp/alk) / alkaline phosphatase (alp/alk) + systemic / organ weight / liver / absolute….
[39] abbreviates: systemic / pathology microscopic / spleen / hemosiderosis.
[40] abbreviates: group: offspring, systemic / in life observation / body weight / offspring (pup) weight.
[41] abbreviates: group: parental, systemic / in life observation / body weight / body weight + systemic / in life observation / clinical signs / [other] + systemic / in life ….
[42] abbreviates: group: reproductive, reproductive / reproductive performance / gestational length / gestational length.
The mark [43] stands for this setting: group: developmental, developmental / developmental malformation / bone / misaligned + developmental / developmental malformation / mouth / jaw / protruding ….

The source of these data is EPA's ToxRefDB 2.

As for `Cc1cnc(C2=NC(C)(C(C)C)C(=O)N2)c(C(=O)O)c1` (centres undefined) [Imazapic], in data set [1], the LEL was determined as 137 mg/kg/day, the lowest-observed-adverse-effect level (LOAEL) was found to be 137 mg/kg/day, the NEL is less than 137 mg/kg/day and the NOAEL is less than 137 mg/kg/day. Besides, in data set [2] (setting [17]), the LEL turned out to be 350 mg/kg/day, the LOAEL is greater than 700 mg/kg/day, the NEL turned out to be 175 mg/kg/day and the NOAEL is no less than 700 mg/kg/day. In data set [2] (setting [18]), the LEL was determined as 500 mg/kg/day and the lowest observed adverse effect level (LOAEL) is 500 mg/kg/day. In addition, in [2] (setting [19]), the NEL worked out at 350 mg/kg/day and the NOAEL amounted to 350 mg/kg/day.

Turning to `CS(=O)(=O)c1cc(C(F)(F)F)ccc1C(=O)c1cnoc1C1CC1` [Isoxaflutole], the LEL was found to be 453 mg/kg/day in data set [3]; 17.4 mg/kg/day in data set [4] (setting [20]); 17.4 mg/kg/day in data set [4] (setting [22]); 5 mg/kg/day in data set [5] (setting [23]); 100 mg/kg/day in data set [5] (setting [24]); 100 mg/kg/day in [6] (setting [25]). In addition, the LEL in data set [6] (setting [27]) was 500 mg/kg/day; in [7], 64.4 mg/kg/day; in [8] (setting [28]) it was 20 mg/kg/day. For the same compound, the lowest observed adverse effect level (LOAEL) came to 453 mg/kg/day in data set [3]; 17.4 mg/kg/day in [4] (setting [20]); 17.4 mg/kg/day in data set [4] (setting [22]); 5 mg/kg/day in [5] (setting [23]); 100 mg/kg/day in [5] (setting [24]); 100 mg/kg/day in data set [6] (setting [25]). Further, the LOAEL in [6] (setting [27]) turned out to be 500 mg/kg/day; in [7] it was 64.4 mg/kg/day; in [8] (setting [28]), 20 mg/kg/day. Moreover, the NEL was 44.8 mg/kg/day in data set [3]; 1.76 mg/kg/day in data set [4] (setting [21]); 1.76 mg/kg/day in data set [4] (setting [22]); less than 5 mg/kg/day in data set [5] (setting [23]); 20 mg/kg/day in data set [5] (setting [24]); 10 mg/kg/day in data set [6] (setting [26]). Besides, the NEL in data set [6] (setting [27]) was found to be 100 mg/kg/day; in [7], 3.2 mg/kg/day; in data set [8] (systemic / organ weight / liver / absolute + systemic / organ weight / liver / relative to body weight + systemic / pathology gross / liver…) it was 2 mg/kg/day. Further, the NOAEL in [3] was 44.8 mg/kg/day; in data set [4] (setting [21]), 1.76 mg/kg/day; in data set [4] (setting [22]), 1.76 mg/kg/day; in data set [5] (setting [23]), less than 5 mg/kg/day; in data set [5] (setting [24]), 20 mg/kg/day; in data set [6] (setting [26]), 10 mg/kg/day. In addition, the NOAEL was 100 mg/kg/day in [6] (setting [27]), 3.2 mg/kg/day in [7] and 2 mg/kg/day in data set [8] (setting [28]).

For `CC#C[C@]1(O)CC[C@H]2[C@@H]3CCC4=CC(=O)CCC4=C3[C@@H](c3ccc(N(C)C)cc3)C[C@@]21C` [Mifepristone], in data set [9], the LEL was found to be 200 ppm, the LOAEL was greater than 600 ppm, the NEL was less than 200 ppm and the NOAEL is no less than 600 ppm.

Consider `Oc1ccccc1` [Phenol], for which the LEL in data set [10] (setting [29]) stood at 280 mg/kg/day; in data set [10] (setting [27]), 280 mg/kg/day; in [11] (setting [30]), 375 mg/kg/day; in data set [12] (setting [32]) it was 318 mg/kg/day; in data set [12] (setting [34]), 13.5 mg/kg/day; in data set [12] (setting [35]), 318 mg/kg/day. Besides, the LEL in data set [13] (setting [37]) was 125 mg/kg/day. In addition, the LOAEL was greater than 280 mg/kg/day in data set [10] (setting [29]); greater than 280 mg/kg/day in data set [10] (setting [27]); greater than 750 mg/kg/day in data set [11] (setting [31]); greater than 318 mg/kg/day in data set [12] (setting [32]); greater than 301 mg/kg/day in data set [12] (setting [33]); greater than 318 mg/kg/day in data set [12] (setting [35]). The LOAEL in data set [13] (setting [36]) is greater than 250 mg/kg/day. Further, the NEL in data set [10] (setting [29]) was 140 mg/kg/day; in [10] (setting [27]) it was 140 mg/kg/day; in data set [11] (setting [30]), less than 375 mg/kg/day; in [12] (setting [32]) it was 69.8 mg/kg/day; in data set [12] (setting [34]), less than 13.5 mg/kg/day; in data set [12] (setting [35]) it was 69.8 mg/kg/day. Further, the NEL in data set [13] (setting [37]) was less than 125 mg/kg/day. For the same compound, the no observed adverse effect level (NOAEL) in data set [10] (setting [29]) was no less than 280 mg/kg/day; in data set [10] (setting [27]) it was no less than 280 mg/kg/day; in [11] (setting [31]), no less than 750 mg/kg/day; in data set [12] (setting [32]), no less than 318 mg/kg/day; in data set [12] (setting [33]), no less than 301 mg/kg/day; in data set [12] (setting [35]), no less than 318 mg/kg/day. Further, in [13] (setting [36]), the NOAEL is no less than 250 mg/kg/day.

On to `CC(C)N(C(=O)SCC(Cl)=C(Cl)Cl)C(C)C` [Tri-allate], for which the lowest-observed-adverse-effect level (LOAEL) in data set [14] (setting [38]) came out at 5 mg/kg/day; in data set [15] (group: offspring, systemic / in life observation / body weight / offspring (pup) weight + developmental / offspring survival late / [other] / [other]), 30 mg/kg/day; in [15] (setting [41]), 30 mg/kg/day; in data set [15] (setting [42]), 30 mg/kg/day; in [16] (setting [43]), 90 mg/kg/day; in data set [16] (setting [18]), 30 mg/kg/day. The NOAEL in data set [14] (setting [38]) is 1.5 mg/kg/day; in [15] (setting [40]), 7.5 mg/kg/day; in [15] (setting [41]), 7.5 mg/kg/day; in data set [15] (setting [42]) it was 7.5 mg/kg/day; in [16] (setting [43]), 30 mg/kg/day; in data set [16] (setting [19]), 10 mg/kg/day. The LEL stood at 1.5 mg/kg/day in data set [14] (setting [39]); 2.5 mg/kg/day in data set [15] (setting [40]); 7.5 mg/kg/day in data set [15] (group: parental, systemic / in life observation / body weight / body weight + systemic / organ weight / ovary / relative to body weight + systemic / organ …); 30 mg/kg/day in data set [15] (setting [42]); 90 mg/kg/day in [16] (setting [43]); 30 mg/kg/day in data set [16] (setting [19]). For the same compound, the NEL in data set [14] (setting [39]) is less than 1.5 mg/kg/day; in data set [15] (setting [40]), less than 2.5 mg/kg/day; in data set [15] (setting [41]), 2.5 mg/kg/day; in [15] (setting [42]), 7.5 mg/kg/day; in data set [16] (setting [43]) it was 30 mg/kg/day; in data set [16] (setting [19]), 10 mg/kg/day.

One may read the LOAEL as the lowest tested level that showed an adverse finding. One may read the NOAEL as the highest tested level that showed no adverse finding.
